Results reported in US9951088B2, “D2 receptor modulators and methods of use thereof in the treatment of diseases and disorders” (SUNOVION PHARMACEUTICALS INC., priority 2012, dated 2018).

Columns and labels:
[1] = molecular target: T1, long isoform of human D2 receptor (Homo sapiens, UniProt P14416); assay: Arrestin Antagonist Assay (DRD2L PathHunter CHO-K1 cells, vs EC80 dopamine); conditions: for Emax: CHO-K1, read-out: β-arrestin (antagonist mode) Imax
Procedure: (§1) Cell Lines: Activities of the compounds were assessed using a Chinese Hamster Ovary (CHO—K1) cell line that recombinantly expressed the long isoform of human D2 receptor (DRD2L PathHunter cells). The D2 receptor DNA sequence was modified to contain a “ProLink” at its C-terminus which allowed complementation with an “enzyme acceptor” (EA)-tagged β-arrestin protein. The recruitment of the O-arrestin by the D2 receptor led to complementation of the ProLink and EA and formation of active β-galactosidase which generated a D2-specific signal that was measured.
Arrestin Antagonist Assay: One day prior to testing, a vial of high density stock of DRD2L PathHunter cells was thawed, and 1×10^7 cells diluted into 40 mL of growth media (Ham's F12/10% HI FBS/1% PSG). 20 μL cells per well were seeded directly into assay plates, and the plates were allowed to rest for 1 h at RT before incubating in a plate incubator overnight.
The plate was incubated for 30 min at 37° C. 15 μL PathHunter detection reagent was added to each well of the assay plate, which was then covered and incubated for 1 h at RT. The plate was read on an Envision reader using the Luminescence protocol, and the data were exported for analysis.
The IC50 values (concentration producing a half-maximal inhibitory response) were determined by non-linear regression analysis of the concentration-response curves.

[2] = molecular target: T1, long isoform of human D2 receptor; assay: cAMP HTRF Agonist Assay (DRD2L PathHunter CHO-K1 cells, forskolin-stimulated); conditions: for Emax: CHO-K1, read-out: cAMP (agonist mode) Emax
Procedure: Cell Lines: Activities of the compounds were assessed using a Chinese Hamster Ovary (CHO—K1) cell line that recombinantly expressed the long isoform of human D2 receptor (DRD2L PathHunter cells). The D2 receptor DNA sequence was modified to contain a “ProLink” at its C-terminus which allowed complementation with an “enzyme acceptor” (EA)-tagged β-arrestin protein. The recruitment of the O-arrestin by the D2 receptor led to complementation of the ProLink and EA and formation of active β-galactosidase which generated a D2-specific signal that was measured. The cAMP assay was measured in the same D2-expressing cell line. The D2 receptor inhibited cAMP formation so that the basal levels of cAMP were increased by the addition of an adenylate cyclase stimulator, forskolin.
cAMP HTRF Agonist Assay: Two days prior to testing, a vial of high density stock of DRD2L PathHunter cells was thawed, and cells were diluted into 10 mL of growth media (Ham's F12/10% HI FBS/1% PSG) and used to seed a T225 flask containing 50 mL of growth media. Cells were cultured for 2 days.
On the day of the assay, cells were dissociated in 5 mL cell dissociation buffer (enzyme free—Invitrogen) for 10-15 minutes at 37° C. Dissociated cells were diluted with 10 mL of growth media and counted. Cell counts were routinely ˜2×10^7 per T225. Cells were then pelleted at 1500 rpm for 5 min. Supernatant was aspirated, and cells were re-suspended in HBSS/20 mM Hepes, pH 7.4 to a cell density of 1×10^6/mL.
cAMP levels were determined using the Cisbio HTRF method. HRTF reagents (cAMP-HTRF acceptor fluorophore (d2) conjugate and cryptate-labeled anti-cAMP antibody) were prepared according to maunfacturers instructions. 5 μL of each were added to each well of an assay plate and incubated for 1 h at RT. The plate was then read on an Envision reader using the HTRF protocol, and data were exported for analysis.
(§2) The agonist Emax results were expressed as a percent of the dopamine control response ((measured specific response/control specific agonist response)×100) obtained in the presence of test article. The EC50 values (concentration producing a half-maximal specific response) were determined by non-linear regression analysis of the concentration-response curves.

[3] = molecular target: T1, long isoform of human D2 receptor; assay: Arrestin Agonist Assay (DRD2L PathHunter CHO-K1 cells, β-arrestin recruitment); conditions: for Emax: CHO-K1, read-out: β-arrestin (agonist mode) Emax
Procedure: as §1
Arrestin Agonist Assay: One day prior to testing, a vial of high density stock of DRD2L PathHunter cells was thawed, and 1×10^7 cells diluted into 40 mL of growth media (Ham's F12/10% HI FBS/1% PSG). 20 μL cells per well were seeded directly into assay plates, and the plates were allowed to rest for 1 h at RT before incubating in a plate incubator overnight.
5 μL diluted compound was added to cells in each well, and the assay plate was incubated for 90 min at 37° C. 12.5 μL PathHunter detection reagent was added to each well of the assay plate, which was then covered and incubated for 1 h at RT. The plate was read on an Envision reader using the Luminescence protocol, and the data were exported for analysis.
as §2

T1 sequence (P14416 whole entry, canonical isoform): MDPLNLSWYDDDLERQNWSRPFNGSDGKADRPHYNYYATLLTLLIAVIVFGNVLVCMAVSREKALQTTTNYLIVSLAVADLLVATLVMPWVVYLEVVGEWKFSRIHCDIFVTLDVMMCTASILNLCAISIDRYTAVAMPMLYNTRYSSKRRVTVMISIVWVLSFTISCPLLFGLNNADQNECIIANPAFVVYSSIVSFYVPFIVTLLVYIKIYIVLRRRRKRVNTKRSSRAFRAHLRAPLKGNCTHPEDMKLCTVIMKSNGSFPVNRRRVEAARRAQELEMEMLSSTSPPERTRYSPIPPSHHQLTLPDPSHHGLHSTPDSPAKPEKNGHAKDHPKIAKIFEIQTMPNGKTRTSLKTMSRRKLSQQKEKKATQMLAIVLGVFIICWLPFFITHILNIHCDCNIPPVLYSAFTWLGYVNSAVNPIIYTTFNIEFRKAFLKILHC

Structure (SMILES)	IC50 [1]	Emax [1]	IC50 [2]	Emax [2]	EC50 [3]	Emax [3]
Cc1ccc2c(c1)CN(CCCCOc1ccc3ccc(=O)[nH]c3n1)CC2 [Compound 65, 7-(4-(7-methyl-3,4-dihydroisoquinolin-2(1H)-yl)butoxy)-1,8-naphthyridin-2(1H)-one]	10 to 100 nM	> 75%	< 10 nM	10 to 25%	> 10000 nM	< 10%
N#Cc1cccc2c1CCN(CCCCOc1ccc3c(n1)NC(=O)CC3)C2 [Compound 78, 2-(4-((7-oxo-5,6,7,8-tetrahydro-1,8-naphthyridin-2-yl)oxy)butyl)-1,2,3,4-tetrahydroisoquinoline-5-carbonitrile]	> 10000 nM	< 10%	10 to 100 nM	50 to 75%	10 to 100 nM	50 to 75%
Oc1cccc2ccc(OCCCCN3CCc4ccsc4C3)nc12 [Compound 19, 2-(4-(4,5-dihydrothieno[2,3-c]pyridin-6(7H)-yl)butoxy)quinolin-8-ol]	1000 to 10000 nM	> 75%	> 10000 nM	< 10%	> 10000 nM	< 10%
COc1ccc2c(c1)CCN(CCCCOc1ccc3cccc(O)c3n1)C2 [Compound 13, 2-(4-(6-methoxy-3,4-dihydroisoquinolin-2(1H)-yl)butoxy)quinolin-8-ol]	1000 to 10000 nM	> 75%	> 10000 nM	< 10%	< 10 nM	10 to 25%
Oc1cccc2ccc(OCCCCN3CCc4cc(F)ccc4C3)nc12 [Compound 16, 2-(4-(6-fluoro-3,4-dihydroisoquinolin-2(1H)-yl)butoxy)quinolin-8-ol]	100 to 1000 nM	> 75%	> 10000 nM	< 10%	> 10000 nM	< 10%
O=C1CCc2ccc(OCCCCN3CCc4nn(-c5ccc(F)cc5)cc4C3)cc2N1 [Compound 37, 7-(4-(2-(4-fluorophenyl)-6,7-dihydro-2H-pyrazolo[4,3-c]pyridin-5(4H)-yl)butoxy)-3,4-dihydroquinolin-2(1H)-one]	10 to 100 nM	> 75%	> 10000 nM	< 10%	> 10000 nM	< 10%
Oc1cccc2ccc(OCCCCN3CCc4c(Cl)cccc4C3)nc12 [Compound 20, 2-(4-(5-chloro-3,4-dihydroisoquinolin-2(1H)-yl)butoxy)quinolin-8-ol]	> 10000 nM	< 10%	10 to 100 nM	50 to 75%	100 to 1000 nM	> 75%
O=C1CCc2ccc(OCCCCN3CCc4ccccc4C3)nc2N1 [Compound 68, 7-(4-(3,4-dihydroisoquinolin-2(1H)-yl)butoxy)-3,4-dihydro-1,8-naphthyridin-2(1H)-one]	10 to 100 nM	> 75%	< 10 nM	25 to 50%	> 10000 nM	< 10%
Oc1cccc2ccc(OCCCCN3CCN(c4ccccn4)CC3)nc12 [Compound 8, 2-(4-(4-(pyridin-2-yl)piperazin-1-yl)butoxy)quinolin-8-ol]	> 10000 nM	< 10%	< 10 nM	> 75%	10 to 100 nM	> 75%
Oc1cccc2ccc(OCCCCN3CCc4sccc4C3)nc12 [Compound 18, 2-(4-(6,7-dihydrothieno[3,2-c]pyridin-5(4H)-yl)butoxy)quinolin-8-ol]	1000 to 10000 nM	> 75%	> 10000 nM	< 10%	> 10000 nM	< 10%
O=C1NCCc2ccc(OCCCCN3CCc4sccc4C3)nc2N1 [Compound 86, 8-(4-(6,7-dihydrothieno[3,2-c]pyridin-5(4H)-yl)butoxy)-4,5-dihydro-1H-pyrido[2,3-d][1,3]diazepin-2(3H)-one]	10 to 100 nM	> 75%	> 10000 nM	< 10%	> 10000 nM	< 10%
Cn1cc2c(n1)CCN(CCCCOc1ccc3c(c1)NC(=O)CC3)C2 [Compound 24, 7-(4-(2-methyl-6,7-dihydro-2H-pyrazolo[4,3-c]pyridin-5(4H)-yl)butoxy)-3,4-dihydroquinolin-2(1H)-one]	1000 to 10000 nM	25 to 50%	10 to 100 nM	> 75%	100 to 1000 nM	25 to 50%
Clc1cccc(N2CCN(CCCCOc3ccc4cn[nH]c4n3)CC2)c1Cl [Compound 1, 6-(4-(4-(2,3-dichlorophenyl)piperazin-1-yl)butoxy)-1H-pyrazolo[3,4-b]pyridine]	< 10 nM	> 75%	< 10 nM	25 to 50%	> 10000 nM	< 10%
O=c1ccc2ccc(OCCCCN3CCc4nn(-c5ccccc5)cc4C3)nc2[nH]1 [Compound 66, 7-(4-(2-phenyl-6,7-dihydro-2H-pyrazolo[4,3-c]pyridin-5(4H)-yl)butoxy)-1,8-naphthyridin-2(1H)-one]	10 to 100 nM	> 75%	10 to 100 nM	10 to 25%	> 10000 nM	< 10%
O=C1CCc2ccc(OCCCCN3CCc4ncncc4C3)cc2N1 [Compound 23, 7-(4-(7,8-dihydropyrido[4,3-d]pyrimidin-6(5H)-yl)butoxy)-3,4-dihydroquinolin-2(1H)-one]	1000 to 10000 nM	25 to 50%	100 to 1000 nM	50 to 75%	100 to 1000 nM	10 to 25%
O=c1ccc2ccc(OCCCCN3CCc4ccccc4C3)nc2[nH]1 [Compound 52, 7-(4-(3,4-dihydroisoquinolin-2(1H)-yl)butoxy)-1,8-naphthyridin-2(1H)-one]	10 to 100 nM	> 75%	< 10 nM	50 to 75%	< 10 nM	10 to 25%
Oc1cccc2ccc(OCCCCN3CCc4cccc(C(F)(F)F)c4C3)nc12 [Compound 21, 2-(4-(8-(trifluoromethyl)-3,4-dihydroisoquinolin-2(1H)-yl)butoxy)quinolin-8-ol]	100 to 1000 nM	> 75%	< 10 nM	25 to 50%	> 10000 nM	< 10%
O=C1CCc2ccc(OCCCCN3CCc4c(Cl)cccc4C3)nc2N1 [Compound 76, 7-(4-(5-chloro-3,4-dihydroisoquinolin-2(1H)-yl)butoxy)-3,4-dihydro-1,8-naphthyridin-2(1H)-one]	> 10000 nM	< 10%	< 10 nM	> 75%	< 10 nM	> 75%
O=C1CCc2ccc(OCCCCN3CCc4nn(-c5ccccc5F)cc4C3)cc2N1 [Compound 35, 7-(4-(2-(2-fluorophenyl)-6,7-dihydro-2H-pyrazolo[4,3-c]pyridin-5(4H)-yl)butoxy)-3,4-dihydroquinolin-2(1H)-one]	10 to 100 nM	> 75%	> 10000 nM	< 10%	> 10000 nM	< 10%
Cc1ccccc1N1CCN(CCCCOc2ccc3cn[nH]c3c2)CC1 [Compound 96, 6-(4-(4-(o-tolyl)piperazin-1-yl)butoxy)-1H-indazole]	100 to 1000 nM	> 75%	10 to 100 nM	25 to 50%	10 to 100 nM	10 to 25%
CCC(=O)Nc1cccc(OCCCCN2CCc3ccccc3C2)n1 [Compound 41, N-(6-(4-(3,4-dihydroisoquinolin-2(1H)-yl)butoxy)pyridin-2-yl)-propionamide]	100 to 1000 nM	> 75%	> 10000 nM	< 10%	> 10000 nM	< 10%
O=c1ccc2ccc(OCCCCN3CCc4cccc(C(F)(F)F)c4C3)nc2[nH]1 [Compound 63, 7-(4-(8-(trifluoromethyl)-3,4-dihydroisoquinolin-2(1H)-yl)butoxy)-1,8-naphthyridin-2(1H)-one]	10 to 100 nM	> 75%	> 10000 nM	< 10%	> 10000 nM	< 10%
Clc1cccc2c1CCN(CCCCOc1cccc(-c3cc[nH]n3)n1)C2 [Compound 45, 2-(4-((6-(1H-pyrazol-3-yl)pyridin-2-yl)oxy)butyl)-5-chloro-1,2,3,4-tetrahydroisoquinoline]	> 10000 nM	< 10%	< 10 nM	> 75%	10 to 100 nM	> 75%
CCOc1cccnc1N1CCN(CCCCOc2ccc3cccc(O)c3n2)CC1 [Compound 10, 2-(4-(4-(3-ethoxypyridin-2-yl)piperazin-1-yl)butoxy)quinolin-8-ol]	10 to 100 nM	> 75%	< 10 nM	25 to 50%	< 10 nM	10 to 25%
O=C1CCc2ccc(OCCCCN3CCc4cccc(C(F)(F)F)c4C3)nc2N1 [Compound 79, 7-(4-(8-(trifluoromethyl)-3,4-dihydroisoquinolin-2(1H)-yl)butoxy)-3,4-dihydro-1,8-naphthyridin-2(1H)-one]	100 to 1000 nM	> 75%	> 10000 nM	< 10%	> 10000 nM	< 10%
Oc1cccc2ccc(OCCCCN3CCc4cc(Cl)ccc4C3)nc12 [Compound 14, 2-(4-(6-chloro-3,4-dihydroisoquinolin-2(1H)-yl)butoxy)quinolin-8-ol]	1000 to 10000 nM	> 75%	> 10000 nM	< 10%	> 10000 nM	< 10%
COc1cccnc1N1CCN(CCCCOc2ccc3cn[nH]c3c2)CC1 [Compound 99, 6-(4-(4-(3-methoxypyridin-2-yl)piperazin-1-yl)butoxy)-1H-indazole]	10 to 100 nM	> 75%	< 10 nM	25 to 50%	< 10 nM	10 to 25%
